From patent EP2457572A1, “Use of atomic quantum clusters (aqcs) in the prevention of cell proliferative disorders, viral infections and autoimmune diseases” (Universidade De Santiago De Compostela, priority 2010, dated 2012)

Tested on: HL-60 cells
Experiment: Activated caspase 3 by flow cytometry (PE Active Caspase-3 Apoptosis kit)
Type: cell-based
Conditions: camptothecin 30µM, non treated control 7.4 %
Procedure: HL-60 cells were incubated with the various treatments. […] (It is well known that caspase 3 is the main effector of apoptosis mediated by caspase activation).

SMILES: CC[C@@]1(O)C(=O)OCc2c1cc1n(c2=O)Cc2cc3ccccc3nc2-1 [camptothecin]
- cells positive for activated caspase 3: 32.4%
